Molecular target: T1, protein tyrosine phosphatase 1B (PTP1B) (Homo sapiens, UniProt P18031)
T1 sequence (P18031 1-435): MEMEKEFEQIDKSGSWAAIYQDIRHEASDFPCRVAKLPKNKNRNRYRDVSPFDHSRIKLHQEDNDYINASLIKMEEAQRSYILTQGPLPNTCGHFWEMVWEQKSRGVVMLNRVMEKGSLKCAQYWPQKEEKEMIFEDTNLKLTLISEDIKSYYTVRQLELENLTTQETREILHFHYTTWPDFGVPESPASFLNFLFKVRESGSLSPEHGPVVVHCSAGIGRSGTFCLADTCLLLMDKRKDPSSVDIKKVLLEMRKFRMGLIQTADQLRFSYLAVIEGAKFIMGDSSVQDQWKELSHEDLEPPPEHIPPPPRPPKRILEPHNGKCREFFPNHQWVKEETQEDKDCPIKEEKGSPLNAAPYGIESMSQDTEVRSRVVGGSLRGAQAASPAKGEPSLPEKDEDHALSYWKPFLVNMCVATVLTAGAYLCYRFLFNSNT
Test: Inhibitory activity against PTP1B assay
Type: biochemical

IC50	SMILES
> 100 µM	CC(C)=CCC[C@](C)(O[C@@H]1O[C@H](CO[C@@H]2O[C@H](CO)[C@@H](O)[C@H](O)[C@H]2O)[C@@H](O)[C@H](O)[C@H]1O)[C@H]1CC[C@]2(C)[C@@H]1[C@H](O)C[C@@H]1[C@@]3(C)CC[C@H](O[C@@H]4O[C@H](CO)[C@@H](O)[C@H](O)[C@H]4O[C@@H]4O[C@H](CO)[C@@H](O)[C@H](O)[C@H]4O)C(C)(C)[C@@H]3CC[C@]12C [Compound 5, ginsenoside-Rb1]
> 100 µM	CC(C)=CCC[C@](C)(O[C@@H]1O[C@H](CO[C@@H]2O[C@@H](CO)[C@H](O)[C@H]2O)[C@@H](O)[C@H](O)[C@H]1O)[C@H]1CC[C@]2(C)[C@@H]1[C@H](O)C[C@@H]1[C@@]3(C)CC[C@H](O[C@@H]4O[C@H](CO)[C@@H](O)[C@H](O)[C@H]4O[C@@H]4O[C@H](CO)[C@@H](O)[C@H](O)[C@H]4O)C(C)(C)[C@@H]3CC[C@]12C [Compound 8, ginsenoside-Rc]
> 100 µM	CC(C)=CCC[C@](C)(O[C@@H]1O[C@H](CO)[C@@H](O)[C@H](O)[C@H]1O)[C@H]1CC[C@]2(C)[C@@H]1[C@H](O)C[C@@H]1[C@@]3(C)CC[C@H](O[C@@H]4O[C@H](CO)[C@@H](O)[C@H](O)[C@H]4O[C@@H]4O[C@H](CO)[C@@H](O)[C@H](O)[C@H]4O)C(C)(C)[C@@H]3CC[C@]12C [Compound 9, ginsenoside-Rd]
> 100 µM	CC1(C)CCC[C@](C)([C@H]2CC[C@]3(C)[C@@H]2[C@H](O)C[C@@H]2[C@@]4(C)CC[C@H](O)C(C)(C)[C@@H]4CC[C@]23C)O1 [Compound 18, panaxadiol]

SMILES	IC50
CC(C)=CCC[C@](C)(O[C@@H]1O[C@H](CO)[C@@H](O)[C@H](O)[C@H]1O)[C@H]1CC[C@]2(C)[C@@H]1[C@H](O)C[C@@H]1[C@@]3(C)CC[C@H](O)C(C)(C)[C@@H]3[C@@H](O)C[C@]12C [Compound 14, ginsenoside-F1]	> 100 µM

From article PMC3915329 (Journal of Ginseng Research, 2013)
